In patent US20260101893A1, “FUNGICIDAL COMPOSITIONS” (SYNGENTA CROP PROTECTION AG, priority 2022, published 2026):

Experiments:
Type in all cases: cell-based
[1] = test system: Mycosphaerella arachidis Syn. Cercospora arachidicola; test: Fungicidal activity against Mycosphaerella arachidis syn. Cercospora arachidicola (brown leaf spot), liquid culture in PDB, 96-well microtiter plate
Protocol: (§1) Fungicidal Activity Against Mycosphaerella arachidis Syn. Cercospora arachidicola (Brown Leaf Spot) Conidia of the fungus from cryogenic storage were directly mixed into nutrient broth (PDB potato dextrose broth). A DMSO solution of the test compounds was placed into a microtiter plate (96-well format) and the nutrient broth containing the fungal spores was added to it. The test plates were incubated at 24° C. and after 5 days the fungal growth was assessed visually and compared to the growth in untreated wells. The scores were recorded as % control compared to the untreated wells. The action to be expected E for a given active ingredient combination was calculated using the COLBY formula as follows: • ppm=milligrams of active ingredient (=a.i.) per liter of spray mixture • X=% action by active ingredient (A) using p ppm of active ingredient • Y=% action by active ingredients (B+C) using q ppm of active ingredient. According to COLBY, the expected (additive) action of active ingredients (A)+(B+C) using p+q ppm of active ingredient is: [formula]

[2] = test system: Glomerella lagenarium (Colletotrichum lagenarium); test: Fungicidal activity against Glomerella lagenarium (Colletotrichum lagenarium) liquid culture/cucumber/preventative (Anthracnose)
Protocol: as §1, with “activity against Glomerella lagenarium (Colletotrichum lagenarium) liquid culture/cucumber/preventative (Anthracnose)” for “Activity Against Mycosphaerella arachidis Syn. Cercospora arachidicola (Brown Leaf Spot)”, “72 hours” for “5 days”

[3] = test system: Zymoseptoria tritici (Septoria tritici); test: Fungicidal activity against Zymoseptoria tritici (Septoria tritici) (leaf blotch), liquid culture in PDB, 96-well microtiter plate
Protocol: as §1, with “activity against Zymoseptoria tritici (Septoria tritici) (leaf blotch)” for “Activity Against Mycosphaerella arachidis Syn. Cercospora arachidicola (Brown Leaf Spot)”, “72 hours” for “5 days”

`CO/C=C(\Oc1cc(C2CCCCC2)ccc1C)C(=O)OC` [Compound X.04, methyl (Z)-2-(5-cyclohexyl-2-methyl-phenoxy)-3-methoxy-prop-2-enoate] was tested, and the “% control Score” value ([1]; X.04 0.02 ppm) was 70%, the “% control Score” value ([1]; X.04 0.02 ppm alone) was 70% and the “% control Score” value ([1]; X.04 0.02 ppm, Table B2) was 70%. The “% control Score” value ([1]; X.04 0.07 ppm) was 70%, the “% control Score” value ([1]; X.04 0.07 ppm alone) was 90% and the “% control Score” value ([1]; X.04 0.07 ppm, Table B2) was 90%. The “% control Score” value ([1]; X.04 0.2 ppm) was 70%, the “% control Score” value ([1]; X.04 0.2 ppm alone) was 90% and the “% control Score” value ([1]; X.04 0.2 ppm, Table B2) was 90%. The “Mycosphaerella arachidis % control Score” value ([1]; ppm: X.04 0.02) was 70%, the “Mycosphaerella arachidis % control Score” value ([1]; ppm: X.04 0.07) was 90% and the “Mycosphaerella arachidis % control Score” value ([1]; ppm: X.04 0.2) was 90%. The “% control Score” value ([2]; X.04 0.02 ppm) was 0%, the “% control Score” value ([2]; X.04 0.02 ppm alone) was 0% and the “% control Score” value ([2]; X.04 0.02 ppm, Table B2) was 0%. The “% control Score” value ([2]; X.04 0.07 ppm) was 70%, the “% control Score” value ([2]; X.04 0.07 ppm alone) was 70% and the “% control Score” value ([2]; X.04 0.07 ppm, Table B2) was 70%. For the same molecule, the “% control Score” value ([2]; X.04 0.2 ppm) was 100%, the “% control Score” value ([2]; X.04 0.2 ppm alone) was 100% and the “% control Score” value ([2]; X.04 0.2 ppm, Table B2) was 100%. The “Colletotrichum lagenarium % control Score” value ([2]; ppm: X.04 0.02) was 0%, the “Colletotrichum lagenarium % control Score” value ([2]; ppm: X.04 0.07) was 70% and the “Colletotrichum lagenarium % control Score” value ([2]; ppm: X.04 0.2) was 100%. The “% control Score” value ([3]; X.04 0.02 ppm) was 0%, the “% control Score” value ([3]; X.04 0.02 ppm alone) was 0% and the “% control Score” value ([3]; X.04 0.02 ppm, Table B2) was 0%. For the same molecule, the “% control Score” value ([3]; X.04 0.07 ppm) was 0%, the “% control Score” value ([3]; X.04 0.07 ppm alone) was 0% and the “% control Score” value ([3]; X.04 0.07 ppm, Table B2) was 0%. For the same molecule, the “% control Score” value ([3]; X.04 0.2 ppm) was 0%, the “% control Score” value ([3]; X.04 0.2 ppm alone) was 0% and the “% control Score” value ([3]; X.04 0.2 ppm, Table B2) was 0%. For the same molecule, the “Zymoseptoria tritici % control Score” value ([3]; ppm: X.04 0.02) was 0%, the “Zymoseptoria tritici % control Score” value ([3]; ppm: X.04 0.07) was 0% and the “Zymoseptoria tritici % control Score” value ([3]; ppm: X.04 0.2) was 0%.
